Converted amounts (≈) assume the structure as drawn. Where two headings read alike, the source gives them in different places.
Legend:
Assay type in all cases: cell-based
[1] = system: Staphylococcus aureus ATCC 6538; test: MIC test, agar dilution with Steers multiwell inoculator; details: ATCC6538, TSA dishes, 24 h at 35°C, read-out: Minimum Inhibiting Concentration
Outline: (§1)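 TSA agar dilution, 2-fold series of compound (from 2560 µg/ml DMSO/NaOH stock; 64 µg/ml/dish top), inoculum 1-2.10⁷ cfu/ml in peptonized water, 35°C 24 h. MIC read as lowest conc. with no visible growth.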

Escherichia coli CNUR 1 = test: as above; details: CNUR1, TSA dishes, 24 h at 35°C, read-out: Minimum Inhibiting Concentration
Outline: as §1

Escherichia coli CNUR 8 = test: as above; details: CNUR8, TSA dishes, 24 h at 35°C, read-out: Minimum Inhibiting Concentration
Outline: as §1

[2] = system: Pseudomonas aeruginosa ATCC 9027; test: as above; details: ATCC9027, TSA dishes, 24 h at 35°C, read-out: Minimum Inhibiting Concentration
Outline: as §1

[3] = system: Enterobacter cloacae OMNF 1174; test: as above; details: OMNF1174, TSA dishes, 24 h at 35°C, read-out: Minimum Inhibiting Concentration
Outline: as §1

Escherichia coli 120 = test: as above; details: TSA dishes, 24 h at 35°C, read-out: Minimum Inhibiting Concentration
Outline: as §1

[4] = system: Klebsiella pneumoniae ATCC 10031; test: as above; details: ATCC10031, TSA dishes, 24 h at 35°C, read-out: Minimum Inhibiting Concentration
Outline: as §1

[5] = system: Pseudomonas aeruginosa CNUR 2; test: as above; details: CNUR2, TSA dishes, 24 h at 35°C, read-out: Minimum Inhibiting Concentration
Outline: as §1

[6] = system: Escherichia coli ATCC 8739; test: as above; details: ATCC8739, TSA dishes, 24 h at 35°C, read-out: Minimum Inhibiting Concentration
Outline: as §1

[7] = system: Staphylococcus epidermidis CPHL A2; test: as above; details: CPHLA2, TSA dishes, 24 h at 35°C, read-out: Minimum Inhibiting Concentration
Outline: as §1

[8] = system: Pseudomonas aeruginosa CNUR 4; test: as above; details: CNUR4, TSA dishes, 24 h at 35°C, read-out: Minimum Inhibiting Concentration
Outline: as §1

[9] = system: Providencia stuardii CNUR 5; test: as above; details: CNUR5, TSA dishes, 24 h at 35°C, read-out: Minimum Inhibiting Concentration
Outline: as §1

[10] = system: Staphylococcus aureus MPR 5; test: as above; details: MPR5, TSA dishes, 24 h at 35°C, read-out: Minimum Inhibiting Concentration
Outline: as §1

[11] = system: Streptococcus facealis LEP Br.; test: as above; details: TSA dishes, 24 h at 35°C, read-out: Minimum Inhibiting Concentration
Outline: as §1

[12] = system: Acinebacter calcoloaceticus OSMPV 1130; test: as above; details: TSA dishes, 24 h at 35°C, read-out: Minimum Inhibiting Concentration
Outline: as §1

Shighella enteritidis = test: as above; details: TSA dishes, 24 h at 35°C, read-out: Minimum Inhibiting Concentration
Outline: as §1

Escherichia coli ISF 432 = test: as above; details: ISF432, TSA dishes, 24 h at 35°C, read-out: Minimum Inhibiting Concentration
Outline: as §1

Proteus vulgaris CNUR 6 = test: as above; details: CNUR6, TSA dishes, 24 h at 35°C, read-out: Minimum Inhibiting Concentration
Outline: as §1

[13] = system: Staphylococcus epidermidis HCF Berset C.; test: as above; details: TSA dishes, 24 h at 35°C, read-out: Minimum Inhibiting Concentration
Outline: as §1

[14] = system: Enterobacter cloacae OMNF 1153; test: as above; details: OMNF1153, TSA dishes, 24 h at 35°C, read-out: Minimum Inhibiting Concentration
Outline: as §1

Gram + = test: MIC test, average over the 5 gram-positive test germs; details: 24 h
Outline: as §1

Gram - = test: MIC test, average over the 15 gram-negative test germs; details: 24 h
Outline: as §1

[15] = geometrical average of the MIC over the 5 Gram + strains, read-out: Geometrical Average
[16] = geometrical average of the MIC over the 15 Gram - strains, read-out: Geometrical Average
[17] = mean log of the MIC over the 15 Gram - strains, read-out: Log (converted)

SMILES | MIC [1] | MIC (Escherichia coli CNUR 1) | MIC (Escherichia coli CNUR 8) | MIC [2] | MIC [3] | MIC (Escherichia coli 120) | MIC [4] | MIC [5] | MIC [6] | MIC [7] | MIC [8] | MIC [9] | MIC [10] | MIC [11] | MIC [12] | MIC (Shighella enteritidis) | MIC (Escherichia coli ISF 432) | MIC (Proteus vulgaris CNUR 6) | MIC [13] | MIC [14] | also measured
CN1CCN(c2c(N)c(N)c3c(=O)c(C(=O)O)cn(C4CC4)c3c2F)CC1 [Compound 28] | 2 µg/mL (≈ 5.33 µM) | 0.25 µg/mL (≈ 0.666 µM) | 0.12 µg/mL (≈ 0.32 µM) | 4 µg/mL (≈ 10.7 µM) | 0.12 µg/mL (≈ 0.32 µM) | 0.12 µg/mL (≈ 0.32 µM) | 0.03 µg/mL (≈ 0.0799 µM) | 8 µg/mL (≈ 21.3 µM) | 0.03 µg/mL (≈ 0.0799 µM) | 4 µg/mL (≈ 10.7 µM) | 64 µg/mL (≈ 170 µM) | 2 µg/mL (≈ 5.33 µM) | 2 µg/mL (≈ 5.33 µM) | 4 µg/mL (≈ 10.7 µM) | 2 µg/mL (≈ 5.33 µM) | 0.25 µg/mL (≈ 0.666 µM) | 0.03 µg/mL (≈ 0.0799 µM) | 64 µg/mL (≈ 170 µM) | 4 µg/mL (≈ 10.7 µM) | 0.25 µg/mL (≈ 0.666 µM) | MIC (Gram +; [15]): 3.03 µg/mL; MIC (Gram +; read-out: Log (converted)): 3.03 µg/mL (≈ 8.08 µM); MIC (Gram -; [16]): 0.592 µg/mL (≈ 1.58 µM); MIC (Gram -; [17]): 0.592 µg/mL (≈ 1.58 µM)
CC1CN(c2cc3c(cc2N)c(=O)c(C(=O)O)cn3C2CC2)CCN1 (centres unmarked) [Compound 14] | 16 µg/mL (≈ 46.7 µM) | 0.12 µg/mL (≈ 0.35 µM) | 0.12 µg/mL (≈ 0.35 µM) | 2 µg/mL (≈ 5.84 µM) | 0.25 µg/mL (≈ 0.73 µM) | 0.06 µg/mL (≈ 0.175 µM) | 0.03 µg/mL (≈ 0.0876 µM) | 4 µg/mL (≈ 11.7 µM) | 0.03 µg/mL (≈ 0.0876 µM) | 4 µg/mL (≈ 11.7 µM) | 64 µg/mL (≈ 187 µM) | 16 µg/mL (≈ 46.7 µM) | 16 µg/mL (≈ 46.7 µM) | 32 µg/mL (≈ 93.5 µM) | 16 µg/mL (≈ 46.7 µM) | 0.25 µg/mL (≈ 0.73 µM) | 0.03 µg/mL (≈ 0.0876 µM) | 32 µg/mL (≈ 93.5 µM) | 4 µg/mL (≈ 11.7 µM) | 0.5 µg/mL (≈ 1.46 µM) | MIC (Gram +; [15]): 10.6 µg/mL; MIC (Gram +; read-out: Log (converted)): 10.5 µg/mL (≈ 30.8 µM); MIC (Gram -; [16]): 0.68 µg/mL (≈ 1.99 µM); MIC (Gram -; [17]): 0.679 µg/mL (≈ 1.98 µM)
Cc1c(N2CCNCC2)c(N)cc2c(=O)c(C(=O)O)cn(C3CC3)c12 [Compound 34] | 1 µg/mL (≈ 2.92 µM) | 0.12 µg/mL (≈ 0.35 µM) | 0.06 µg/mL (≈ 0.175 µM) | 4 µg/mL (≈ 11.7 µM) | 0.12 µg/mL (≈ 0.35 µM) | 0.12 µg/mL (≈ 0.35 µM) | 0.06 µg/mL (≈ 0.175 µM) | 16 µg/mL (≈ 46.7 µM) | 0.12 µg/mL (≈ 0.35 µM) | 1 µg/mL (≈ 2.92 µM) | 16 µg/mL (≈ 46.7 µM) | 2 µg/mL (≈ 5.84 µM) | 2 µg/mL (≈ 5.84 µM) | 8 µg/mL (≈ 23.4 µM) | 4 µg/mL (≈ 11.7 µM) | 0.06 µg/mL (≈ 0.175 µM) | 0.06 µg/mL (≈ 0.175 µM) | 8 µg/mL (≈ 23.4 µM) | 2 µg/mL (≈ 5.84 µM) | 0.25 µg/mL (≈ 0.73 µM) | MIC (Gram +; [15]): 2 µg/mL; MIC (Gram +; read-out: Log (converted)): 2 µg/mL (≈ 5.84 µM); MIC (Gram -; [16]): 0.51 µg/mL (≈ 1.49 µM); MIC (Gram -; [17]): 0.513 µg/mL (≈ 1.5 µM)
Nc1cc2c(=O)c(C(=O)O)cn(C3CC3)c2cc1N1CCSCC1 [Compound 15] | 0.5 µg/mL (≈ 1.45 µM) | 0.5 µg/mL (≈ 1.45 µM) | 0.12 µg/mL (≈ 0.347 µM) | 2 µg/mL (≈ 5.79 µM) | 0.5 µg/mL (≈ 1.45 µM) | 0.12 µg/mL (≈ 0.347 µM) | 0.03 µg/mL (≈ 0.0868 µM) | 16 µg/mL (≈ 46.3 µM) | 0.03 µg/mL (≈ 0.0868 µM) | 1 µg/mL (≈ 2.89 µM) | 128 µg/mL (≈ 371 µM) | 1 µg/mL (≈ 2.89 µM) | 0.5 µg/mL (≈ 1.45 µM) | 8 µg/mL (≈ 23.2 µM) | 1 µg/mL (≈ 2.89 µM) | 0.5 µg/mL (≈ 1.45 µM) | 0.03 µg/mL (≈ 0.0868 µM) | 128 µg/mL (≈ 371 µM) | 2 µg/mL (≈ 5.79 µM) | 0.5 µg/mL (≈ 1.45 µM) | MIC (Gram +; [15]): 1.32 µg/mL; MIC (Gram +; read-out: Log (converted)): 1.32 µg/mL (≈ 3.82 µM); MIC (Gram -; [16]): 0.748 µg/mL (≈ 2.17 µM); MIC (Gram -; [17]): 0.748 µg/mL (≈ 2.17 µM)
CN1CCN(c2cc3c(cc2N)c(=O)c(C(=O)O)cn3C(C)(C)C)CC1 [Compound 44, 6-amino-1-terbutyl-7-(4-methyl-1-piperazinyl)-1,4-dihidro-4-oxo-quinoline carboxylic acid] | 2 µg/mL (≈ 5.58 µM) | 1 µg/mL (≈ 2.79 µM) | 0.5 µg/mL (≈ 1.39 µM) | 4 µg/mL (≈ 11.2 µM) | 1 µg/mL (≈ 2.79 µM) | 0.5 µg/mL (≈ 1.39 µM) | 0.06 µg/mL (≈ 0.167 µM) | 32 µg/mL (≈ 89.3 µM) | 0.06 µg/mL (≈ 0.167 µM) | 2 µg/mL (≈ 5.58 µM) | 128 µg/mL (≈ 357 µM) | 4 µg/mL (≈ 11.2 µM) | 2 µg/mL (≈ 5.58 µM) | 32 µg/mL (≈ 89.3 µM) | 4 µg/mL (≈ 11.2 µM) | 1 µg/mL (≈ 2.79 µM) | 0.06 µg/mL (≈ 0.167 µM) | 128 µg/mL (≈ 357 µM) | 4 µg/mL (≈ 11.2 µM) | 2 µg/mL (≈ 5.58 µM) | MIC (Gram +; read-out: Log (converted)): 4 µg/mL (≈ 11.2 µM); MIC (Gram -; [16]): 1.73 µg/mL (≈ 4.82 µM); MIC (Gram -; [17]): 1.73 µg/mL (≈ 4.81 µM)
